Results reported in US12715858B2, “Pyridazinone compounds” (INVENTISBIO CO., LTD., priority 2020, dated 2026).
Like-named read-outs stand apart in the source and are kept apart here.

Key:
Assay type in all cases: physicochemical
[1] = Interconversion study of potassium salt Form 1 and Form 2 (slurry of equal amounts); conditions: for XRPD result: 20 V, stirred overnight
Description: Interconversion study were performed in MeOH/EA (1/9, RT or 50° C.) and acetone/water (20/1, RT or 50° C.). Equal amounts of Form 1 and Form 2 were slurried in specified solvents at different temperatures for certain time.

[2] = Dynamic Vapor Sorption (DVS); conditions: for hygroscopicity: DVS; for water uptake / weight gain by DVS: at 80% RH (Form I: 0 to 80% RH), 25° C.
Description: Dynamic Vapor Sorption (DVS): Moisture sorption/desorption data was collected on a IGASorp DVS. The sample was placed into a tarred sample chamber and weighed automatically. The sample was dried at 50° C. until the % RH was less than 0.3% and cooled to 25° C. Set the instrument parameters as below.

[3] = Solubility in water and bio-relevant media at 37° C. (HPLC of filtrate, pH of filtrate, XRPD of filter cake); conditions: for solubility at 0.5 h / solubility at 2 h / solubility at 24 h: 37 °C, thermodynamic from solid; for solubility at 0.5 h / Solubility (mg/mL) 2 h / Solubility (mg/mL) 24 h / Solubility (mg/mL) 0.5 h / solubility at 2 h / solubility at 24 h: 37° C.; for solubility at 0.5 h: read-out: Solubility (mg/mL) 0.5 h; for XRPD: filter cake obtained at 2 or 24 hours; for PH 0.5 h / PH 2 h / PH 24 h: pH of the filtrate; for solubility at 2 h: read-out: Solubility (mg/mL) 2 h; for solubility at 24 h: read-out: Solubility (mg/mL) 24 h
Description: Solubility of Form I of free acid, Form 1 and Form 2 of potassium salt, and Form A of sodium salt were tested in water and in bio-relevant media of Simulated Intestinal Fluid (SIF), Simulated Gastric Fluid (SGF), Fasted State Simulated Intestinal Fluid (FaSSIF), and Fed State Simulated Intestinal Fluid (FeSSIF) at 37° C. up to 24 hours. About 12 mg of the sample was weighed into sample vials and then 1.5 mL of each media was added to make suspensions respectively. All suspensions were shaken at 37° C. with 200 rpm.

[4] = Solid state stability at 60° C. and 40° C./75% RH for 7 days (HPLC purity, XRPD); conditions: for chemical and physical stability: 40° C./75% RH and 60° C. for 7 days; for Purity at Day 7 (Area %) 40° C./75% RH: 7 days at 40° C./75% RH; for Purity at Day 7 (Area %) 40° C./75% RH / Purity at Day 7 (Area %) 60° C.: HPLC; for Purity at Day 7 (Area %) 60° C.: 7 days at 60° C.; for XRPD 40° C./75% RH: crystal form after 7 days at 40° C./75% RH; for XRPD 60° C.: crystal form after 7 days at 60° C.; for Initial Purity (Area %): day 0, HPLC
Description: HPLC analysis was performed with an Agilent HPLC 1260 series instrument.
Appropriate amount of free acid Form I, potassium salts Form 1 and Form 2, and sodium salt Form A were placed at 60° C. and 40° C./75% RH for 7 days. At 0 and 7 days, the samples were dissolved in diluent to prepare a solution of 0.5 mg/mL for HPLC purity analysis. Solid samples were analyzed by XRPD to check the crystal form.

[5] = FaSSIF (Fasted State Simulated Intestinal Fluid), fassif, FaSSIF, LOQ is 0.5 μg/mL
[6] = FeSSIF (Fed State Simulated Intestinal Fluid), fessif, FeSSIF
[7] = water, water, Water, LOQ is 0.5 μg/mL

## Cc1nn(-c2cc(Cl)c(Oc3cc(C(C)C)c(=O)[nH]n3)c(Cl)c2)c(=O)[n-]c1=O.[K+] [Potassium Salts Form 1 and 2]
[1]; 50° C., Acetone/Water (19/1)
  XRPD result: Form 2
[1]; 50° C., MeOH/EtOAc (1/9)
  XRPD result: Form 1
[1]; RT, Acetone/Water (19/1)
  XRPD result: Form 2
[1]; RT, MeOH/EtOAc (1/9)
  XRPD result: Form 1

## Cc1nn(-c2cc(Cl)c(Oc3cc(C(C)C)c(=O)[nH]n3)c(Cl)c2)c(=O)[n-]c1=O.[K+] [Potassium salt Form 2]
[1]; slurry in MeOH/EA and acetone/water, RT or 50° C.
  relative stability of Form 1 and Form 2: more stable in aqueous solution
[2]; 80% RH, forms of potassium salt of Compound 1
  DVS Water % at 80% RH: 1.6%
[2]
  hygroscopicity: slight hygroscopic
  water uptake / weight gain by DVS: 1.6%
[2]; XRPD after DVS
  crystal form of solid after the DVS study: remained unchanged
[3]; [5]
  solubility at 0.5 h: 0.0011 mg/mL
[3]; FaSSIF, LOQ is 0.5 μg/mL
  Solubility (mg/mL) 2 h: 0.015 mg/mL
[3]; FaSSIF
  Solubility (mg/mL) 24 h: 0.0070 mg/mL
  XRPD: Free acid
  PH 0.5 h: 7.04
  PH 2 h: 7.49
  PH 24 h: 7.90
[3]; FeSSIF
  Solubility (mg/mL) 0.5 h: 0.0041 mg/mL
  Solubility (mg/mL) 2 h: 0.013 mg/mL
  Solubility (mg/mL) 24 h: 0.022 mg/mL
  XRPD: Free acid
  PH 0.5 h: 5.09
  PH 2 h: 5.24
  PH 24 h: 5.17
[3]; SGF, LOQ is 0.5 μg/mL
  Solubility (mg/mL) 0.5 h: <LOQ
  Solubility (mg/mL) 2 h: <LOQ
  Solubility (mg/mL) 24 h: <LOQ
[3]; SIF, LOQ is 0.5 μg/mL
  Solubility (mg/mL) 0.5 h: <LOQ
  Solubility (mg/mL) 2 h: <LOQ
  Solubility (mg/mL) 24 h: <LOQ
[3]; Water, LOQ is 0.5 μg/mL
  Solubility (mg/mL) 0.5 h: 4.63 mg/mL
  Solubility (mg/mL) 2 h: 6.69 mg/mL
  Solubility (mg/mL) 24 h: 6.71 mg/mL
[3]; SGF
  XRPD: Free acid
  PH 0.5 h: 1.35
  PH 2 h: 1.25
  PH 24 h: 1.25
[3]; SIF
  XRPD: Free acid
  PH 0.5 h: 7.43
  PH 2 h: 7.51
  PH 24 h: 7.46
[3]; Water
  XRPD: Free acid
  PH 0.5 h: 10.49
  PH 2 h: 10.62
  PH 24 h: 10.42
[4]
  chemical and physical stability: chemically and physically stable
  Purity at Day 7 (Area %) 40° C./75% RH: 98.97 Area %
  Purity at Day 7 (Area %) 60° C.: 99.07 Area %
  XRPD 40° C./75% RH: Unchanged
  XRPD 60° C.: Unchanged
  Initial Purity (Area %): 99.04 Area %

## Cc1nn(-c2cc(Cl)c(Oc3cc(C(C)C)c(=O)[nH]n3)c(Cl)c2)c(=O)[n-]c1=O.[Na+] [Sodium salt Form A]
[2]
  hygroscopicity: slightly hygroscopic
  water uptake / weight gain by DVS: about 1.6%
[3]; [5]
  solubility at 0.5 h: 0.0013 mg/mL
  solubility at 2 h: 0.015 mg/mL
[3]; FaSSIF (Fasted State Simulated Intestinal Fluid), fassif, FaSSIF
  solubility at 24 h: 0.013 mg/mL
[3]; [6]
  solubility at 0.5 h: 0.0011 mg/mL
  solubility at 2 h: 0.0029 mg/mL
  solubility at 24 h: 0.012 mg/mL
[3]; SGF, LOQ is 0.5 μg/mL
  Solubility (mg/mL) 0.5 h: <LOQ
  Solubility (mg/mL) 2 h: <LOQ
  Solubility (mg/mL) 24 h: <LOQ
[3]; SIF, LOQ is 0.5 μg/mL
  Solubility (mg/mL) 0.5 h: <LOQ
  Solubility (mg/mL) 2 h: <LOQ
  Solubility (mg/mL) 24 h: <LOQ
[3]; FaSSIF
  XRPD: Free acid
  PH 0.5 h: 7.07
  PH 2 h: 7.33
  PH 24 h: 8.27
[3]; FeSSIF
  XRPD: Free acid
  PH 0.5 h: 5.09
  PH 2 h: 5.18
  PH 24 h: 5.26
[3]; SGF
  XRPD: Free acid
  PH 0.5 h: 1.24
  PH 2 h: 1.24
  PH 24 h: 1.24
[3]; SIF
  XRPD: Free acid
  PH 0.5 h: 7.23
  PH 2 h: 7.60
  PH 24 h: 7.65
[3]; Water
  XRPD: Free acid +
  PH 0.5 h: 10.76
  PH 2 h: 10.81
  PH 24 h: 10.63
[3]; [7]
  solubility at 0.5 h: 2.8 mg/mL
  solubility at 2 h: 3.51 mg/mL
  solubility at 24 h: 4.57 mg/mL
[4]
  chemical and physical stability: chemically and physically stable
  Purity at Day 7 (Area %) 40° C./75% RH: 98.02 Area %
  Purity at Day 7 (Area %) 60° C.: 98.01 Area %
  XRPD 40° C./75% RH: Unchanged
  XRPD 60° C.: Unchanged
  Initial Purity (Area %): 97.98 Area %
